Assay results from patent publication US4981690A, “Liposome-incorporated mepartricin” (priority 1987, dated 1991).
Like-named read-outs stand apart in the source and are kept apart here.

Legend:
HTLV-III/LAV = conditions: H9 cells; Schaffner et al. 1986; cited from earlier work
[1] = water, cited from earlier work
human red blood cells = test: Lysis of human red blood cells (hemoglobin release at 550 nm); type: cell-based; conditions: SLS present in F-SPA-222
Experimental: The human RBCs were incubated at 37° C. for 45 min. with ( X) free-SPA-222, (Δ) sodium lauryl sulfate, ( .circle. ) free SPA-160, ( .circle. ) liposomal SPA-160 (L-SPA-160) in liposomes composed of DMPC:DMPG (7:3), ( ) L-SPA-160 in liposomes composed of DMPC:DMPG+cholesterol (9:1) or ( ) L-SPA-160 in liposomes composed of DMPC:DMPG+ergosterol (9:1)
Lysis of human red blood cells (HRBCs) was quantitated by measuring the release of hemoglobin in the supernatants at 550 nm, as described previously (Mehta et al., Biochim. Biophys, Acta., Vol. 770, pp. 230-234 (1984)). Various doses of L-SPA were incubated with fresh washed human RBCs at 37° C. for 45 minutes,24 hr, 48 hr and 96 hr.
Lysis of HRBCs was quantitated by measuring the release of hemoglobin in the supernatants at 550 nm as previously described (Mehta et al., (1984) Biochem. Biophys. Acts, 770:230). Various doses of L-SPA-160 were incubated with fresh washed HRBCs at 37° C. for 45 minutes, 24, 48 and 96 hrs. Free-SPA-222, stock dissolved in water and diluted with isotonic PBS was added to the assay. F-SPA-160 as DMFA solution diluted with isotonic PBS was also used as a control and contained 3% DMFA at a final concentration of drug at 300 ug ml. Appropriate solvent controls and empty liposomes were also included in each experiment. […]

[2] = compared with partricin; cited from earlier work

Compound	Inhibition of HTLV-III/LAV replication (in words) (HTLV-III/LAV)	Aqueous solubility (in words) [1]	further results
C[C@@H]1[C@H](O)[C@@H](C)/C=C/C=C/C=C/C=C/C=C/C=C/C=C/[C@H](O[C@@H]2O[C@H](C)[C@@H](O)[C@H](N)[C@@H]2O)C[C@@H]2O[C@](O)(C[C@@H](O)C[C@@H](O)[C@H](O)CC[C@@H](O)C[C@@H](O)CC(=O)O[C@H]1C)C[C@H](O)[C@H]2C(=O)O [Amphotericin B]	inhibited	insoluble in water	
C[C@@H]1[C@H](O)[C@@H](C)/C=C/C=C/CC/C=C/C=C/C=C/C=C/C(O[C@H]2O[C@H](C)[C@@H](O)[C@H](N)[C@@H]2O)CC2O[C@](O)(CC(O)C(O)CCC(O)CC(O)CC(O)CC(=O)O[C@H]1C)CC(O)C2C(=O)O (some centres unmarked) [Nystatin]		aqueous insolubility	
CCCCCCCCCCCCOS(=O)(=O)[O-].[Na+] [SLS, sodium lauryl sulphate]			Share of F-SPA-222 RBC toxicity associated with SLS (human red blood cells): Fifty percent
COC(=O)[C@H]1[C@@H]2C[C@@H](O[C@@H]3O[C@H](C)[C@@H](O)[C@H](N)[C@@H]3O)/C=C/C=C/C=C/C=C/C=C/C=C/C=C/[C@H](C)[C@@H](O)[C@@H](C)[C@H](C)OC(=O)C[C@H](O)C[C@H](O)CC[C@@H](O)[C@H](O)C[C@H](O)C[C@](O)(C[C@@H]1O)O2 [amphotericin B methyl ester ascorbate]	inhibited		
Mepartricin		low aqueous solubility	Toxicity to animals relative to partricin (in words) [2]: much less toxic to animals than partricin; Aqueous solubility (in words) ([1]; listed as mepartricin): substantially water-insoluble
